Converted amounts (≈) assume the structure as drawn. Like-named read-outs stand apart in the source and are kept apart here.
Assays:
[1] = test system: H9 T cell line; assay: Toxicity to uninfected H9 cells (cell count); format: cell-based
Protocol: (§1) The H9 T cell line was maintained in continuous culture with complete medium (RPMI and 10% fetal calf serum) at 5% CO2 and 37° C. and was used in experiments only when in log phase of growth. The cells were incubated with HIV-1 (IIIB isolate, TCID50 10^4 IU/mL, at a multiplicity of infection of 0.1-0.01 IU/cell) for 1 hour at 37° C. and 5% CO2. The cells then were washed thoroughly to remove unabsorbed virions and resuspended at 4×10^5 cells/mL in complete medium. Aliquots (1 mL) were placed in wells of 24-well culture plates containing an equal volume of test compound (diluted in the culture medium). After a four day incubation at 37° C., cell density of uninfected cultures was determined by counting cells in a Coulter counter to assess toxicity of the test compound. A p24 antigen ELISA assay was used to determine the level of virus released in the medium of the HIV-infected cultures. The p24 antigen assay uses an HIV-1 anti-p24 specific monoclonal antibody as the capture antibody coated on 96 well plates. Following a sample incubation period, rabbit serum containing antibodies for HIV-1 p24 is used to tag any p24 "captured" onto the microtiter well surface. […] The cut-off for the p24 ELISA assay is 12.5 pg/mL. P24 in the culture medium was quantitated against a standard curve containing known amounts of p24. The effective (EC50) and inhibitory concentrations (for anti-HIV activity and cytotoxicity, respectively) were determined.

[2] = biological target: T1, HIV reverse transcriptase associated RNase H (HIV-1 M:B_HXB2R, UniProt P04585); assay: HIV reverse transcriptase associated RNase H activity; format: biochemical
T1 construct: cut from Gag-Pol polyprotein

[3] = biological target: T2, HIV-1 reverse transcriptase (Human immunodeficiency virus type 1 group M subtype B, UniProt P04585); assay: HIV-1 reverse transcriptase, DNA-dependent DNA polymerase associated activity; format: biochemical; parameters: HIV-1 reverse transcriptase was purified; made in house; host or cells: Escherichia coli JM 109 containing pKRT 2 (plasmid provided by W. C. Summers, Yale University); details: for inhibitory effect against RT-associated DNA polymerase activity: under certain conditions
Protocol: (§2) HIV-1 reverse transcriptase was purified using Escherichia coli JM 109 containing pKRT 2 kindly provided by W. C. Summers (Yale University).
(§3) Enzyme Assay. All reactions were developed in a total volume of 50 μl containing 50 mMTris HCl pH 7.8, 2 mM MgCl2, 100 μg/mL nuclease-free BSA, 1 mM dithiothreitol, 0.5 O.D.260 unit/mL of template-primer, and 330 nM of [^3 H]dNTP according to Cheng et al.

[4] = test system: HIV-1 (IIIB isolate); assay: microbe, parasite or virus in culture; format: cell-based; details: for therapeutic index (TI) / Therapeutic Index: 5760 min
Protocol: as §1

[5] = biological target: T2, HIV-1 reverse transcriptase; assay: HIV-1 reverse transcriptase, RNA-dependent DNA polymerase associated activity; format: biochemical; parameters: HIV-1 reverse transcriptase was purified; made in house; host or cells: Escherichia coli JM 109 containing pKRT 2 (plasmid provided by W. C. Summers, Yale University); details: for HIV-1 reverse transcriptase inhibitory activity: template-primer dependent, result in words; for IC50: mean ± standard deviation of three
Protocol: as §2, §3

[6] = test system: chronically HIV-1 infected promonocytic cell line, U1; assay: Virus expression in chronically HIV-1 infected promonocytic U1 cells (p24 ELISA); format: cell-based; details: for induction of virus expression / alteration in the level of virus expression: 72 hours; for induction of virus expression: cultured alone; for alteration in the level of virus expression: in presence of PMA
Protocol: Therefore, compounds 4 and 5 were separately added for 72 hours to the chronically HIV-1 infected T cell line, ACH-2, and to the chronically HIV-1 infected promonocytic cell line, U1.
(§4) HIV-1 chronically infected T cell line, ACH-2, ^15 and HIV-1 chronically infected promonocytic cell line, U1 ^16 were continuously maintained in RPMI1640 with 10% fetal calf serum (FCS). For experiments, the cell lines were only used in log-phase of growth. Cells (1×10^6 cells/well) and either various concentrations of 4,5, AZT or media alone were added to 24-well plates in the presence or absence of PMA (10^-8 M). After 72 hours at 37° C. and 5% CO2, an aliquot of the cell-free supernatants was collected and analyzed for p24 antigen by ELISA.

[7] = test system: chronically HIV-1 infected T cell line, ACH-2; assay: Virus expression in chronically HIV-1 infected T cell line ACH-2 (p24 ELISA); format: cell-based; details: 72 hours; for induction of virus expression: cultured alone; for alteration in the level of virus expression: in presence of PMA
Protocol: Data obtained by using chronically HIV-1 infected cell lines that are cultured with a test drug can give a sense of how these compounds may function in vivo if given to a latently HIV- infected individual. Therefore, compounds 4 and 5 were separately added for 72 hours to the chronically HIV-1 infected T cell line, ACH-2, and to the chronically HIV-1 infected promonocytic cell line, U1.
as §4

[8] = test system: HIV-1 (IIIB isolate); details: cited from earlier work
[9] = biological target: T2, HIV-1 reverse transcriptase; details: more with Poly(rC)-olig(dG) than with Poly(rA)-olig(dT); cited from earlier work
[10] = Homo sapiens, H9, Table I, cytotoxicity, uninfected H9 cells, read-out: IC50
[11] = Poly(rA)-poly(dT) as substrate, or Mg^+2 as divalent cation
[12] = Poly(rG)-poly(dC) as substrate, Mn^+2 (0.4 mM)
[13] = Poly(dA)-olig(dT) as template primer
[14] = Table II, template-primer printed poly(rA)-olig(dT)^10, mean ± standard deviation of three
[15] = Human immunodeficiency virus 1, H9, text, acutely infected H9 cells, read-out: EC50 (anti-HIV activity)
[16] = Human immunodeficiency virus 1, Lymphocyte, Table I, acutely infected H9 lymphocytes, read-out: EC50
[17] = Human immunodeficiency virus 1, Lymphocyte, Table IA, acutely infected H9 lymphocytes, read-out: EC50
[18] = template-primer poly(rA)-olig(dT)10
[19] = template-primer poly(rC)-olig(dG)12-18

Structure (SMILES)	IC50 [1, 10]	inhibition of HIV RT associated RNase H activity [2, 11]	inhibition of HIV RT associated RNase H activity [2, 12]	inhibition of HIV RT associated RNase H activity ([2]; under certain conditions)	IC50 [3, 13]	IC50 [3, 14]	inhibitory effect against RT-associated DNA polymerase activity [3]	therapeutic index (TI) [4]	EC50 [4, 15]	EC50 [4, 16]	EC50 [4, 17]	Therapeutic Index ([4]; Table I, IC50/EC50)	Therapeutic Index ([4]; Table IA, ratio IC50/EC50)	HIV-1 reverse transcriptase inhibitory activity [5]	IC50 [5, 18]	IC50 [5, 19]	induction of virus expression [6]	alteration in the level of virus expression [6]	p24 ([6]; +Media, 0.0064 μg/mL)	p24 ([6]; +Media, 0.032 μg/mL)	also measured
COC(=O)c1c(Br)c(OC)c2c(c1-c1c3c(c(OC)c(Br)c1C(=O)OC)OCO3)OCO2 [Compound 5, 3,3'-Dibromo-4,4'-dimethoxy-5,6,5'6'-bimethylenedioxy-2,2'-dimethoxycarbonyl biphenyl]	> 100 µg/mL	no inhibition	almost equal potency	Potent inhibitory effects	48 nM	48 ± 4 nM	Potent inhibitory effects	> 480	0.23 µg/mL (≈ 0.399 µM)	0.23 µg/mL (≈ 0.399 µM)	0.23 µg/mL (≈ 0.399 µM)	> 480	> 480	template-primer HIV-1 reverse transcriptase inhibitory activity	1900 ± 900 nM	11000 ± 500 nM	no increase in the induction of virus expression	no alteration in the level of virus expression	17 pg/mL	15 pg/mL	IC50 ([1]; T-cell, Table IA, concentration that causes a 50% reduction in total cell number, read-out: IC50): > 100 µg/mL; p24 ([6]; +Media, 0.16 μg/mL): 13 pg/mL; p24 ([6]; +Media, 0.8 μg/mL): 14 pg/mL; p24 ([6]; +Media, 4 μg/mL): 16 pg/mL; p24 ([6]; +Media, 20 μg/mL): 15 pg/mL; p24 ([6]; +PMA, 0.0064 μg/mL): 7,590 pg/mL; p24 ([6]; +PMA, 0.032 μg/mL): 8,320 pg/mL; p24 ([6]; +PMA, 0.16 μg/mL): 9,850 pg/mL; p24 ([6]; +PMA, 0.8 μg/mL): 11,482 pg/mL; p24 ([6]; +PMA, 4 μg/mL): 10,598 pg/mL; p24 ([6]; +PMA, 20 μg/mL): 10,131 pg/mL; induction of virus expression [7]: no increase in the induction of virus expression; alteration in the level of virus expression [7]: no alteration in the level of virus expression
COc1c(OCc2ccccc2)c(OCc2ccccc2)cc(CO)c1-c1c(CO)cc(OCc2ccccc2)c(OCc2ccccc2)c1OC [Compound 2, 4,4',5,5'-tetrakis(benzyloxy)-6,6'-dimethoxy-2,2'-dihydroxymethyl biphenyl]	–	–	–	–	–	–	–	–	–	–	–	–	–	–	–	–	–	–	–	–	anti-HIV activity ([8]; parent compound, comparable to that of DDB): does possess anti-HIV activity
COC(=O)c1cc(OC)c2c(c1-c1c3c(c(OC)c(Br)c1C(=O)OC)OCO3)OCO2 [Compound 4, 3-Bromo-4,4'-dimethoxy-5,6,5',6'-bimethylenedioxy-2,2'-dimethoxycarbonyl biphenyl]	> 100 µg/mL	no inhibition	almost equal potency	Potent inhibitory effects	56 nM	56 ± 3 nM	Potent inhibitory effects	190	0.52 µg/mL (≈ 1.05 µM)	0.52 µg/mL (≈ 1.05 µM)	0.52 µg/mL (≈ 1.05 µM)	> 190	190	template-primer HIV-1 reverse transcriptase inhibitory activity	4500 ± 1000 nM	2200 ± 600 nM	no increase in the induction of virus expression	no alteration in the level of virus expression	7 pg/mL	10 pg/mL	IC50 ([1]; T-cell, Table IA, concentration that causes a 50% reduction in total cell number): 100 µg/mL (≈ 201 µM); p24 ([6]; +Media, 0.16 μg/mL): 12 pg/mL; p24 ([6]; +Media, 0.8 μg/mL): 11 pg/mL; p24 ([6]; +Media, 4 μg/mL): 11 pg/mL; p24 ([6]; +Media, 20 μg/mL): 22 pg/mL; p24 ([6]; +PMA, 0.0064 μg/mL): 8,314 pg/mL; p24 ([6]; +PMA, 0.032 μg/mL): 7,200 pg/mL; p24 ([6]; +PMA, 0.16 μg/mL): 7,616 pg/mL; p24 ([6]; +PMA, 0.8 μg/mL): 8,774 pg/mL; p24 ([6]; +PMA, 4 μg/mL): 13,376 pg/mL; p24 ([6]; +PMA, 20 μg/mL): 10,746 pg/mL; induction of virus expression [7]: no increase in the induction of virus expression; alteration in the level of virus expression [7]: no alteration in the level of virus expression
Cc1ccnc2c1NC(=O)c1cccnc1N2C1CC1 [Nevarapine]	–	–	–	–	–	–	–	–	–	–	–	–	–	–	–	–	–	–	–	–	inhibitory activity using Poly(rC)-olig(dG) versus Poly(rA)-olig(dT) [9]: more inhibitory activity
COC(=O)c1cc(OC)c2c(c1-c1c(C(=O)OC)cc(OC)c3c1OCO3)OCO2 [Compound 3, 4,4'-dimethoxy-5,6,5'6'-dimethylenedioxy-2,2'-dimethoxycarbonyl biphenyl, reference compound]	–	–	–	–	–	–	–	–	–	–	–	> 20	> 20	–	–	–	–	–	–	–	IC50 ([1]; Homo sapiens, H9): > 100 µg/mL; IC50 ([1]; T-cell): > 100 µg/mL; EC50 ([4]; Human immunodeficiency virus 1, IIIB, Lymphocyte): 5 µg/mL (≈ 12 µM); TI ([8]; background section): > 20

— patent US5612341A, “Brominated hexahydroxybiphenyl derivatives” (Biotech Research Laboratories, priority 1995, dated 1997)
